Experimental findings from US10098347B2, “Methods of improving growth and stress tolerance in plants” (Valent BioSciences LLC, priority 2016, dated 2018) are described below.

Holding throughout (assay type): in vivo
Experiment [1] has as its system Italian sweet basil. In words: Chilling damage of Italian sweet basil following spray treatment (Example 3). The protocol:
(§1) A laboratory study was conducted at Long Grove, Ill. Italian sweet basil seeds were sown in Pro-Mix® BX potting soil and plants were grown at room temperature under cool-white fluorescent lights under a 16:8 (light:dark) photoperiod. At 22 days post-sowing, plants were subjected to sprays with a portable Preval® paint sprayer. At 48 hours post-spraying, plants were moved to a CONVIRON® growth chamber and subjected to a temperature of 4° C. for 72 hours under a 12:12 (light:dark) photoperiod. Upon removal from the cold chamber, plants were returned to the laboratory and placed again under the cool white fluorescent lamps until they were visually scored for chilling damage at 24 hours and 72 hours post-chilling. Each treatment was replicated seven times.

Experiment [2] relates to Italian sweet basil. In words: Chilling damage of Italian sweet basil following spray treatment (Example 4). The method, then: as §1, with “the cool-white” for “the cool white”, “and 120” for “and 72”
In experiment [3] the test system is Cucumber (Cucumis sativa var. Straight Eight). In words: Post-chilling damage in cucumber following spray treatment. The protocol: A laboratory study was conducted at Long Grove, Ill. Cucumber (Cucumis sativa var. Straight Eight) seeds were sown in Pro-Mix® BX potting soil (Pro-Mix is a registered trademark of and available from Premier Horticulture Ltd.) and plants were grown in a CONVIRON® growth chamber at 25° C. under a 16:8 (light:dark) photoperiod. At 15 days post-sowing, plants were subjected to sprays with a portable Preval® paint sprayer. All spray solutions were made up in deionized water and a non-ionic surfactant was added to all spray solutions at 0.05% (v/v). At 48 hours post-spraying, plants were moved to a CONVIRON® growth chamber and subjected to a temperature of 4° C. for 48 hours under a 12:12 (light:dark) photoperiod. Upon removal from the cold chamber, plants were returned to a CONVIRON® growth chamber set at 25° C. under a 16:8 (light:dark) photoperiod. The plants were visually scored for chilling damage at 72 hours post-chilling. Each treatment was replicated seven times. […] Using the following formula, Applicant was able to determine that the response to the GB:(S)-ABA ratio was synergistic, in which a synergy factor is calculated by the […]: % Cexp=A+B−(AB/100), where % Cexp is the expected efficacy and “in which A and B are the increase in growth (or resistance to stress) levels given by the single [plant growth regulators]. If the ratio between the experimentally observed efficacy of the mixture Cobs and the expected efficacy of the mixture is greater than 1, synergistic interactions are present in the mixture” (Gisi, Synergistic Interaction of Fungicides in Mixtures, The American Phytopathological Society, 86:11, 1273-1279, 1996). To be conservative Applicant has set the minimum synergy factor to 1.1 throughout the Examples. Applicant determined synergy to be present at the following ratios of GB:(S)-ABA: 1:1 (synergy factor 3.74); 3.3:1 (synergy factor 2.68) and 10:1 (synergy factor 1.24).

Experiment [4] deals with Italian large leaf basil (Ocimum basilicum) seedlings. In words: Chilling tolerance assay in basil seedlings (24-well plates). The protocol:
To determine the capacity of glycine betaine (“GB”) to confer thermo-tolerance, both singly and in combination with (S)-abscisic acid (“(S)-ABA”), chilling (i.e. cold) tolerance assays were performed using Italian large leaf basil (Ocimum basilicum) seedlings. Basil seeds were sterilized in an ethanol solution containing 0.16% Maxim® XL fungicide (Maxim is a registered trademark of and available from Syngenta Corporation). The sterilized seeds were germinated on ½×Murashige and Skoog Basal Salt Media, supplemented with 1× Gamborg's Vitamins and 0.6% Phytagar, and dispensed into 24-well plates. […]
After five days, concentrated solutions of GB and/or (S)-ABA were added as an overlay in 0.4% Phytagar. […] The seedlings were subjected to chilling stress for six days, after which time they were transferred back to the ambient temperature chamber, and scored after a six-day recovery period.
Individual wells contained indicated amounts of GB and/or (S)-ABA. […] GB was evaluated singly at concentrations of 0, 3,000, 10,000, 30,000, and 100,000 milligrams per liter (“mg/l”.) To test whether there was a synergistic interaction between GB and (S)-ABA, glycine betaine was added to the media at concentrations of 0, 1,000, 3,000, 10,000, and 30,000 mg/l, whereas (S)-ABA was held at a concentration of 3 mg/l. […]

The next experiment relates to Corn. In words: Stomatal conductance of corn following spray. Conditions: for % of Control Conductance 3 days: 3 days post-spray; for % of Control Conductance 4 days: 4 days post-spray. The protocol:
A greenhouse study was conducted at Long Grove, Ill. Seeds of a commercial hybrid variety were sown in Pro-Mix® BX in three-liter pots. Greenhouses were kept at 25±3° C. under a 16:8 hour (light:dark) photoperiod, with illumination at canopy level of ˜250 μmoles m-2 s-1. Corn was typically fertigated with Peters 21-5-20+ micronutrients, calcium ammonium nitrate and magnesium sulfate. Typical growth rates for corn under these conditions ranged from 4 to 5 centimeters per day.
In this study, spray applications were made to corn at stage V4. These applications were made in a track sprayer outfitted with a 4001E Teejet® nozzle (Teejet is available from and a registered trademark of Spraying Systems Co., Glendale Heights, Ill., USA) and applied at 40 pounds per square inch and at 30 gallons/acre of spray solution. Following spray applications, plants were returned to the greenhouse.
At 3 and 4-days post spray application, stomatal conductance of the 4th true leaf was measured using a Licor Model 6400 XT photosynthesis meter (Licor, Lincoln, Neb.) used according to the manufacturer's directions. For ease of analysis, stomatal conductance values are expressed as a percent of control in Table 5 below.

Where [5] appears, read: single agent spray 300 mg/l, 72 hours post-chilling (4° C. 48 h).
Where [6] appears, read: single agent spray 300 mg/l, 4° C. 72 h.

Take `C[N+](C)(C)CC(=O)[O-]` [GB, Glycine betaine]: the “% Leaf Area Damaged 24 h post-chilling” value in the experiment with Italian sweet basil [1] (single agent spray 3,000 mg/l) was 67%; in the experiment on Italian sweet basil [1] (single agent spray 20,000 mg/l), 45%; in the experiment with Italian sweet basil [2] (single agent spray 10,000 mg/l) it was 39.17%; in the experiment on Italian sweet basil [2] (single agent spray 30,000 mg/l), 40.00%. In addition, the “% Leaf Area Damaged 72 h post-chilling” value with Italian sweet basil [1] (single agent spray 3,000 mg/l) is listed as 79%; in the experiment on Italian sweet basil [1] (single agent spray 20,000 mg/l), 65%. Moreover, the “% Leaf Area Damaged 120 h post-chilling” value in the experiment with Italian sweet basil [2] (single agent spray 10,000 mg/l) worked out at 56.67%; in the experiment on Italian sweet basil [2] (single agent spray 30,000 mg/l), 50.00%. In addition, the “% Leaf Area Damaged” value was determined as 84.3% in experiment [3] (setting [5]); 82.1% in experiment [3] (single agent spray 1,000 mg/l, 72 hours post-chilling); 46.4% in experiment [3] (single agent spray 3,000 mg/l, 72 hours post-chilling). Moreover, the “Protection against chilling injury” value in experiment [4] (30,000 mg/l GB alone) is “equivalent protection as ˜20 mg/l (S)-ABA”. For the same compound, the “% of Control Conductance 3 days” value in the experiment with Corn (single agent spray 1,000 mg/l) is 86.2 % of Control. Also, in the experiment on Corn (single agent spray 1,000 mg/l), the “% of Control Conductance 4 days” value is on record as 97.9 % of Control.
Turning to `CC1=CC(=O)CC(C)(C)[C@@]1(O)/C=C/C(C)=C/C(=O)O` [(S)-ABA, (S)-abscisic acid], the results for the “% Leaf Area Damaged 72 h post-chilling” value in the experiment with Italian sweet basil [1] (single agent spray 300 mg/l) and in the experiment on Italian sweet basil [1] (single agent spray 1,000 mg/l) were 27% and 14%, respectively. In addition, the “% Leaf Area Damaged 24 h post-chilling” value with Italian sweet basil [1] (setting [6]) was 12%; in the experiment with Italian sweet basil [1] (single agent spray 1,000 mg/l) it was 6%; in the experiment on Italian sweet basil [2] (setting [6]) it was 23.00%; in the experiment on Italian sweet basil [2] (single agent spray 1,000 mg/l), 11.67%. The “% Leaf Area Damaged 120 h post-chilling” value is reported as 41.00% in the experiment on Italian sweet basil [2] (single agent spray 300 mg/l) and 21.67% with Italian sweet basil [2] (single agent spray 1,000 mg/l). In addition, the “% Leaf Area Damaged” value in experiment [3] (setting [5]) stood at 52.9%. The Chilling injury entry in experiment [4] (20 ppm (S)-ABA alone (positive control)) is reported as ““++” denotes little to no chilling injury; equivalent to 20 ppm (S)-ABA alone”. Moreover, the “% of Control Conductance 4 days” value is reported as 91.8 % of Control with Corn (single agent spray 100 mg/l), 88.7 % of Control in the experiment with Corn (single agent spray 300 mg/l), 95.9 % of Control in the experiment with Corn (single agent spray 1,000 mg/l) and 77.5 % of Control in the experiment with Corn (single agent spray 3,000 mg/l). Besides, the “% of Control Conductance 3 days” value in the experiment with Corn (single agent spray 100 mg/l, corn stage V4, 4th true leaf) is recorded as 81.3 % of Control; in the experiment on Corn (single agent spray 300 mg/l) it was 73.6 % of Control; with Corn (single agent spray 1,000 mg/l), 76.5 % of Control; with Corn (single agent spray 3,000 mg/l) it was 55.3 % of Control.
